For orientation: EC50 means the concentration that produces a half-maximal response. Low readings indicate greater potency, high ones weaker potency.

The results in this text go back to PMC7567103 (Nature Communications, 2020).

Holding throughout (assay type): cell-based
One assay concerns the target T1, GHRHR(23-405) (Homo sapiens, UniProt Q02643).
T1 construct: 24 h after transfection with GHRHR(23-423), GHRHR(23-405), GHRHR(23-405)-LgBiT-2MBP, or HA-Flag-GHRHR (WT and mutants); HA signal peptide (replaces native signal M1-G22) (N); expressed in transfected cells; host or cells: HEK 293 T
The experiment in a line: cAMP accumulation, construct GHRHR(23-405) (Supplementary Fig. 2b). To be noted: HEK 293T; mean ± SEM, n = 8-10. As to the method:
GHRH-stimulated cAMP accumulation was measured by a LANCE Ultra cAMP kit (PerkinElmer). Briefly, 24 h after transfection with GHRHR(23-423), GHRHR(23-405), GHRHR(23-405)-LgBiT-2MBP, or HA-Flag-GHRHR (WT and mutants), HEK 293 T cells (3000/well in 384-well white plates, PerkinElmer) were digested by 0.2% (w/v) EDTA and 5 μL stimulation buffer (HBSS supplemented with 5 mM HEPES, 0.5 mM IBMX, and 0.1% (w/v) BSA, pH 7.4). Different concentrations (5 μL) of GHRH were then added and the stimulation lasted for 30 min at RT. The reaction was stopped by adding 5 μL Eu-cAMP tracer and 5 μL ULight-anti-cAMP. After 1 h RT incubation, TR-FRET signals (excitation: 320 nm, emission: 615 and 665 nm) were measured by an EnVision (PerkinElmer).
223 Supplementary Ta b l e 1. Effects of GHRH-mediated cAMP accumulation.
Receptor cAMP Cell surface expression Binding
pEC50 Emax (% WT) (% WT) pIC50 […]
225 to determine pEC50 and Emax values. pEC50 is the negative logarithm of the molar
226 concentration of agonist that induced half the maximal response. Cell surface […]
228 Flag antibody (Sigma-Aldrich, 1:300); Donkey anti-Mouse Alexa Fluor 488-
229 conjugated secondary antibody, (ThermoFisher Scientific, 1:1000)] on the […]
231 Binding data were analyzed using a three-parameter logistic equation to […]
234 determine statistical difference. *P<0.01; ND, not determined.
(Changes in cAMP serve as a functional read-out for many G protein-coupled receptors.)

The next assay addresses T2, GHRHR V129A (Homo sapiens, UniProt Q02643, V129A).
T2 construct: GHRHR(23-423)-; HA signal peptide (replaces native signal M1-G22) (N); expressed in transfected cells; host or cells: HEK 293T, pcDNA3.1, transient
The experiment in a line: cAMP accumulation, V129A. Conditions: mean ± SEM, n ≥ 3. An excerpt:
(§1) Fig. 2 Molecular recognition of GHRH by GHRHR and comparison of that with LA-PTH–PTH1R and GLP-1–GLP-1R. a Detailed interaction between GHRH and the TMD pocket of GHRHR with hydrogen bonds shown as dotted lines. b, c Pairwise comparison of GHRH bound to GHRHR with GLP-1 and LA-PTH in complex with their corresponding receptors, showing the relative positions of peptide ligands. Lime green, GHRHR; blue, GHRH; red, PTH1R and LA-PTH; purple, GLP-1R and GLP-1. d–f The effects of mutation in the ligand-binding pocket on cAMP accumulation. cAMP levels were measured in wild-type (WT) receptor and alanine mutants in ECL1, 2, and 3 (d), TM1, 2, and 3 (e), and TM5, 6, and 7 (f). cAMP signals were normalized to the maximum response of WT and concentration–response curves were analyzed using a three-parameter logistic equation. Data shown are means ± S.E.M. of at least three independent experiments (n = 3–5), conducted in triplicate. Source data are provided as a Source data file.
(§2) GHRH-stimulated cAMP accumulation was measured by a LANCE Ultra cAMP kit (PerkinElmer). […] After 1 h RT incubation, TR-FRET signals (excitation: 320 nm, emission: 615 and 665 nm) were measured by an EnVision (PerkinElmer).

Assay [1] concerns the target T3, GHRHR wild-type (HA-Flag-GHRHR) (Homo sapiens, UniProt Q02643).
T3 construct: GHRHR(23-423) (WT); HA signal peptide (replaces native signal M1-G22) (N); expressed in transfected cells; host or cells: HEK 293T, pcDNA3.1, transient
The experiment in a line: GHRH-stimulated cAMP accumulation (LANCE), HEK 293T. To be noted: LANCE Ultra cAMP TR-FRET, 30 min RT, mean ± SEM, n ≥ 3.
Source text: as §1
GHRH-stimulated cAMP accumulation was measured by a LANCE Ultra cAMP kit (PerkinElmer). […] After 1 h RT incubation, TR-FRET signals (excitation: 320 nm, emission: 615 and 665 nm) were measured by an EnVision (PerkinElmer). […]
245 to determine pEC50 and Emax values. Emax values for mutants are expressed as a
246 percentage of the wild-type (WT). Cell surface expression was assessed by FACS to […]

The target of the next assay is T4, GHRHR D274A (Homo sapiens, UniProt Q02643, D274A).
T4 construct: GHRHR(23-423)-; HA signal peptide (replaces native signal M1-G22) (N); expressed in transfected cells; host or cells: HEK 293T, pcDNA3.1, transient
Kind of assay: cAMP accumulation, D274A. To be noted: mean ± SEM, n ≥ 3.
Source text: as §1, §2

The target of the next assay is T5, GHRHR H210A (Homo sapiens, UniProt Q02643, H210A).
T5 construct: GHRHR(23-423)-; HA signal peptide (replaces native signal M1-G22) (N); expressed in transfected cells; host or cells: HEK 293T, pcDNA3.1, transient
The experiment in a line: cAMP accumulation, H210A. Conditions: mean ± SEM, n ≥ 3.
Source text: as §1, §2

Another assay has as its target T6, GHRHR H194A (Homo sapiens, UniProt Q02643, H194A).
T6 construct: GHRHR(23-423)-; HA signal peptide (replaces native signal M1-G22) (N); expressed in transfected cells; host or cells: HEK 293T, pcDNA3.1, transient
The experiment in a line: cAMP accumulation, H194A. To be noted: mean ± SEM, n ≥ 3.
Source text: as §1, §2

T1 sequence (Q02643 23-405): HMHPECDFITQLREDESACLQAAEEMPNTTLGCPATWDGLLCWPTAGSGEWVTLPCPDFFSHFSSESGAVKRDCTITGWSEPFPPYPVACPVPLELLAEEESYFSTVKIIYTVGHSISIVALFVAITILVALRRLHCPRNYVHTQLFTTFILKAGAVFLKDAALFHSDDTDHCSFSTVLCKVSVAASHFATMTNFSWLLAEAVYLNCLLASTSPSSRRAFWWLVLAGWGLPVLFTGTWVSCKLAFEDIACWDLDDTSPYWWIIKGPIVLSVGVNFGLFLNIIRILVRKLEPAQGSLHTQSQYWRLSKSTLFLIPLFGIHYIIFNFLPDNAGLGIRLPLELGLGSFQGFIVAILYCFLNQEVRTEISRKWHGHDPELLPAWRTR
T3 sequence (Q02643 23-423): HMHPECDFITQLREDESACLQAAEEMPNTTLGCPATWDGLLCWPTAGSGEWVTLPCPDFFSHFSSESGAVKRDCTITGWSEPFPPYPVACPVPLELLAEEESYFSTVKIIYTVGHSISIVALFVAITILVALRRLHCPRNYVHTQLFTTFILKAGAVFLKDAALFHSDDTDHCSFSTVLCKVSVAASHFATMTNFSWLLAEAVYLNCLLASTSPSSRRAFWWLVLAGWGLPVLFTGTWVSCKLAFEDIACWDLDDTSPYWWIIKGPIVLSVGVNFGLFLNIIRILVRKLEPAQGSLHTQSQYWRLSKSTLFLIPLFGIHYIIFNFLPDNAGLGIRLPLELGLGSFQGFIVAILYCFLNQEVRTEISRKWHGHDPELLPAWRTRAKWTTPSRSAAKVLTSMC
T4 sequence (Q02643 23-423 D274A): as the sequence (Q02643 23-423) above, with D252A counted along it
T5 sequence (Q02643 23-423 H210A): as the sequence (Q02643 23-423) above, with H188A counted along it
T6 sequence (Q02643 23-423 H194A): as the sequence (Q02643 23-423) above, with H172A counted along it
T2 sequence (Q02643 23-423 V129A): as the sequence (Q02643 23-423) above, with V107A counted along it

For the compound `CC[C@H](C)[C@H](NC(=O)[C@H](C)NC(=O)[C@H](CC(=O)O)NC(=O)[C@H](C)NC(=O)[C@@H](N)Cc1ccc(O)cc1)C(=O)N[C@@H](Cc1ccccc1)C(=O)N[C@H](C(=O)N[C@@H](CC(N)=O)C(=O)N[C@@H](CO)C(=O)N[C@@H](Cc1ccc(O)cc1)C(=O)N[C@@H](CCCNC(=N)N)C(=O)N[C@@H](CCCCN)C(=O)N[C@H](C(=O)N[C@@H](CC(C)C)C(=O)NCC(=O)N[C@@H](CCC(N)=O)C(=O)N[C@@H](CC(C)C)C(=O)N[C@@H](CO)C(=O)N[C@@H](C)C(=O)N[C@@H](CCCNC(=N)N)C(=O)N[C@@H](CCCCN)C(=O)N[C@@H](CC(C)C)C(=O)N[C@@H](CC(C)C)C(=O)N[C@@H](CCC(N)=O)C(=O)N[C@@H](CC(=O)O)C(=O)N[C@H](C(=O)N[C@@H](CCSC)C(=O)N[C@@H](CO)C(=O)N[C@@H](CCCNC(=N)N)C(=O)N[C@@H](CCC(N)=O)C(=O)N[C@@H](CCC(N)=O)C(=O)NCC(=O)N[C@@H](CCC(=O)O)C(=O)N[C@@H](CO)C(=O)N[C@@H](CC(N)=O)C(=O)N[C@@H](CCC(N)=O)C(=O)N[C@@H](CCC(=O)O)C(=O)N[C@@H](CCCNC(=N)N)C(=O)NCC(=O)N[C@@H](C)C(=O)N[C@@H](CCCNC(=N)N)C(=O)N[C@@H](C)C(=O)N[C@@H](CCCNC(=N)N)C(=O)N[C@@H](CC(C)C)C(N)=O)[C@@H](C)CC)C(C)C)[C@@H](C)O` [GHRH, Growth hormone-releasing hormone], the EC50 was 0.871 nM at GHRHR(23-405); 166 nM at GHRHR V129A; 0.182 nM in assay [1] (0.5 mM IBMX); 0.468 nM at GHRHR D274A; 1 nM on GHRHR H210A; 0.251 nM on GHRHR H194A. In addition, the Emax on GHRHR(23-405) came out at 120.55±1.97 % WT; on GHRHR V129A, 24.33±6.11 % WT; in assay [1], 100 % WT; on GHRHR D274A it was 99.78±2.32 % WT; on GHRHR H210A, 99.66±1.10 % WT; at GHRHR H194A it was 98.01±1.25 % WT.
